Measurements taken from patent publication US12161642B2, “Ferrochelatase inhibitors and methods of use” (INDIANA UNIVERSITY RESEARCH AND TECHNOLOGY CORPORATION, priority 2018, dated 2024).

Tests used:
recombinant human FECH = recombinant human FECH (Homo sapiens (Human), UniProt P22830); assay: FECH enzymatic activity assay (Ni2+ mesoporphyrin IX formation, absorbance at 550 nm); assay type: biochemical; conditions: recombinant FECH; read-out: FECH IC50
Description: The human FECH expression plasmid pHDTF20 was obtained in E. coli cells from the Dailey Lab (University of Georgia). The cells were grown in Circlegrow medium (MP Biomedicals, LLC #3000-122) with ampicillin for 20 hours. Cells were harvested, lysed in a Tris-MOPS buffer and purified by immobilized metal affinity chromatography using HisPur Cobalt resin (Thermo Fisher #89965).
The activity assay buffer was 100 mM Tris-HCl pH 8.0 with 0.05% octyl glucoside detergent. Assay reagents included 100 μM NiCl (Sigma #339350), 0.75 μM FECH enzyme and 100 μM mesoporphyrin (Sigma #258806) prepared in ammonium hydroxide (Santa Cruz #sc-214535).
The kinetic assay was optimized for a 384-well format. For the 384-well assay, each well contained a 50 μL reaction with 40 μL buffer, 5 μL mesoporphyrin solution, 5 μL NiCl and FECH solution. […] This time point was used for the chemical screen.
A mixture of assay buffer, NiCl and FECH enzyme (15 μL) was added to all wells on the assay plate using a MulitFlo dispenser. To start the reaction, 15 μL of a 333 μM mesoporphyrin solution in assay buffer was added to the plate, the plate spun down and the absorbance at OD=550 nm immediately read to establish a read at time 0. Plates were read for absorbance at OD=550 nm again at t=20 minutes and the activity was expressed as the change in the absorbance over the 20 minute reaction.
Compounds, reordered from ChemDiv or synthesized as described above, were made to 10 mM in DMSO and tested in the FECH enzymatic assay at final concentrations of […] 100 μM (1% final DMSO concentration). IC50 values for the compounds were determined using GraphPad Prism software.
A kinetic assay to monitor FECH enzymatic activity was adapted from a published protocol (Burden et a., Biochim Biophys Acta 1435, 191-197 (1999)).

HRECs = assay: HREC proliferation assay (alamarBlue), GI50 determination; assay type: cell-based, human; conditions: proliferation of HRECs
Description: Human retinal microvascular endothelial cells (HRECs) were cultured in EGM-2 medium (Lonza). Cells (2500/well) in EGM-2 medium were plated in 48 wells in the center of a 96-well black with clear bottom TC treated plate are allowed to attach overnight. The cells were treated with compounds such that final assay concentrations were 100 μM, 30 μM, 10 μM, 3 μM, 1 μM, 100 nM, and 10 nM with DMSO control (1% final DMSO concentration). Cells were allowed to proliferate for 44 hours prior to addition of alamarBlue. The alamarBlue reagent is a flurorometric/colorimetric redox reagent that is reduced in the presence of growing cells. The assay was completed with a read of fluorescence at excitation of 560 nm and emission of 590 nm. GI50 values were determined using GraphPad Prism software.

recombinant human FECH, sequence (P22830 55-423): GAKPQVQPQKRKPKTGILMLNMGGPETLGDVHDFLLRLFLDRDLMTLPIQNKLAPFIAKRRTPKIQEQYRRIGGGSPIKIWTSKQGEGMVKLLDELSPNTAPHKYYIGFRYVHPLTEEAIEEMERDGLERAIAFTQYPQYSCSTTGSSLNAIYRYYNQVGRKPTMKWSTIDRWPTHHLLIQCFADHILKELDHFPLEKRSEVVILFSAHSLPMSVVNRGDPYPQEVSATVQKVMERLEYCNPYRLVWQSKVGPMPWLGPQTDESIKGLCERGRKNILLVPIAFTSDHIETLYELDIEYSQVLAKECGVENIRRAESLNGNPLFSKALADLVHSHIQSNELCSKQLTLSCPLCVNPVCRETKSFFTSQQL

Structure (SMILES)	IC50 (recombinant human FECH)	GI50 (HRECs; Homo sapiens, HREC, 44 h)	GI50 (HRECs; 44 hours)
CCCc1cc(=O)n2nc(CNc3cccc(OC)c3)nc2[nH]1 [Example D433-1741]	2.86 µM	1.61 µM	
Cc1c(Cl)cccc1NCc1nc2[nH]c(C(C)C)cc(=O)n2n1 [Example D433-1800]	0.751 µM		
Cc1cccc(NCc2nc3[nH]c(C(C)C)cc(=O)n3n2)c1 [Example 5s, 5-isopropyl-2-((m-tolylamino)methyl)-[1,2,4]triazolo[1,5-a]pyrimidin-7(4H)-one]	28.1 µM	> 100 µM	
Cc1ccc(NCc2nc3[nH]c4c(c(=O)n3n2)CCC4)cc1Cl [Example D433-1848]	0.227 µM	> 100 µM	
Cc1cc(=O)n2nc(CNc3ccccc3C)nc2[nH]1 [Example 5u, 5-methyl-2-((o-tolylamino)methyl)-[1,2,4]triazolo[1,5-a]pyrimidin-7(4H)-one]	77.2 µM	> 100 µM	
CCCc1cc(=O)n2nc(CNc3ccc(F)cc3)nc2[nH]1 [Example 5m, 2-(((4-fluorophenyl)amino)methyl)-5-propyl-[1,2,4]triazolo[1,5-a]pyrimidin-7(4H)-one]	0.525 µM	> 100 µM	
CCCc1cc(=O)n2nc(CNc3ccc(OC(F)(F)F)cc3)nc2[nH]1 [Example 5n, 5-propyl-2-(((4-(trifluoromethoxy)phenyl)amino)methyl)-[1,2,4]triazolo[1,5-a]pyrimidin-7(4H)-one]	34.1 µM	> 100 µM	
Cc1ccc(Cl)cc1NCc1cc(=O)n2nc(-c3ccccc3C)nc2[nH]1 [Example D351-0414]	0.346 µM	> 100 µM	
Cc1cc(=O)n2nc(-c3ccc(C(C)(C)C)cc3)nc2[nH]1 [Example 2, 2-(4-(tert-butyl)phenyl)-5-methyl-[1,2,4]triazolo[1,5-a]pyrimidin-7(4H)-one]	> 100 µM	> 100 µM	
CCCc1cc(=O)n2nc(CNc3ccc(CC)cc3)nc2[nH]1 [Example 5j, 2-(((4-ethylphenyl)amino)methyl)-5-propyl-[1,2,4]triazolo[1,5-a]pyrimidin-7(4H)-one]	10.6 µM	> 100 µM	
CCCc1cc(=O)n2nc(CNc3cccc(C)c3)nc2[nH]1 [Example 5b, 5-propyl-2-((m-tolylamino)methyl)-[1,2,4]triazolo[1,5-a]pyrimidin-7(4H)-one]	0.508 µM	> 100 µM	
Cc1ccc(Cl)cc1NCc1cc(=O)n2nc(-c3ccc(C(C)(C)C)cc3)nc2[nH]1 [Example D351-0310]	0.0981 µM	42.3 µM	
Cc1ccccc1NCc1nc2[nH]c(C(C)C)cc(=O)n2n1 [Example 5r, 5-isopropyl-2-((o-tolylamino)methyl)-[1,2,4]triazolo[1,5-a]pyrimidin-7(4H)-one]	17.9 µM	> 100 µM	
CCCc1cc(=O)n2nc(CNc3ccc(F)c(F)c3)nc2[nH]1 [Example 5k, 2-(((3,4-difluorophenyl)amino)methyl)-5-propyl-[1,2,4]triazolo[1,5-a]pyrimidin-7(4H)-one]	0.0429 µM	> 100 µM	
CC(C)(C)c1ccc(-c2nc3[nH]c(CNC4CCCC4)cc(=O)n3n2)cc1 [Example 4f, 2-(4-(tert-butyl)phenyl)-5-((cyclopentylamino)methyl)-[1,2,4]triazolo[1,5-a]pyrimidin-7(4H)-one]	> 100 µM	> 100 µM	
CCCc1cc(=O)n2nc(CNc3ccccc3-c3ccccc3)nc2[nH]1 [Example 5g, 2-(([1,1′-biphenyl]-2-ylamino)methyl)-5-propyl-[1,2,4]triazolo[1,5-a]pyrimidin-7(4H)-one]	27.3 µM	> 100 µM	
COc1ccc(NCc2nc3[nH]c(C)c(Cc4ccc(Cl)cc4)c(=O)n3n2)cc1 [Example D433-1582]	0.0614 µM	> 100 µM	
CCCc1cc(=O)n2nc(CNc3ccc(Cl)cc3)nc2[nH]1 [Example D433-1739]	0.829 µM		3.14 µM
COc1cccc(NCc2nc3[nH]c4c(c(=O)n3n2)CCC4)c1 [Example D433-1841]	3.75 µM	> 100 µM	

Structure (SMILES)	IC50 (recombinant human FECH)	GI50 (HRECs; Homo sapiens, HREC, 44 h)	GI50 (HRECs; 44 hours)
CCCc1cc(=O)n2nc(CNc3cccc(Cl)c3C)nc2[nH]1 [Example D433-1750]	2.15 µM	> 100 µM	
Cc1ccccc1NCc1nc2[nH]c3c(c(=O)n2n1)CCC3 [Example 5o, 2-((o-tolylamino)methyl)-4,5,6,7-tetrahydro-8H-cyclopenta[d][1,2,4]triazolo[1,5-a]pyrimidin-8-one]	> 100 µM	> 100 µM	
O=c1c2c([nH]c3nc(CNc4cccc(Cl)c4)nn13)CCC2 [Example D433-1831]	1.57 µM	> 100 µM	
CC(C)(C)c1ccc(-c2nc3[nH]c(CNc4cnccn4)cc(=O)n3n2)cc1 [Example 4d, 2-(4-(tert-butyl)phenyl)-5-((pyrazin-2-ylamino)methyl)-[1,2,4]triazolo[1,5-a]pyrimidin-7(4H)-one]	> 100 µM	> 100 µM	
CCCc1cc(=O)n2nc(CNc3cccc(C(F)(F)F)c3)nc2[nH]1 [Example D433-1725]	4.39 µM	1.17 µM	
CC(C)(C)c1ccc(-c2n[nH]c(N)n2)cc1 [Example 1, 3-(4-(tert-butyl)phenyl)-1H-1,2,4-triazol-5-amine]	> 100 µM	> 100 µM	
Cc1ccc(NCc2nc3[nH]c(C)cc(=O)n3n2)cc1 [Example 5w, 5-methyl-2-((p-tolylamino)methyl)-[1,2,4]triazolo[1,5-a]pyrimidin-7(4H)-one]	22.5 µM	> 100 µM	
Cc1ccc(NCc2nc3[nH]c(C(C)C)cc(=O)n3n2)cc1Cl [Example D433-1798]	1.02 µM	> 100 µM	
CC(C)(C)c1ccc(-c2nc3[nH]c(CCl)cc(=O)n3n2)cc1 [Example 3, 2-(4-(tert-butyl)phenyl)-5-(chloromethyl)-[1,2,4]triazolo[1,5-a]pyrimidin-7(4H)-one]	> 100 µM	> 100 µM	
CCCc1cc(=O)n2nc(CNc3ccc(F)c(Cl)c3)nc2[nH]1 [Example 5i, 2-(((3-chloro-4-fluorophenyl)amino)methyl)-5-propyl-[1,2,4]triazolo[1,5-a]pyrimidin-7(4H)-one]	0.0336 µM	> 100 µM	
Cc1ccc(NCc2nc3[nH]c4c(c(=O)n3n2)CCC4)cc1 [Example 5q, 2-((p-tolylamino)methyl)-4,5,6,7-tetrahydro-8H-cyclopenta[d][1,2,4]triazolo[,5-a]pyrimidin-8-one]	3.62 µM	> 100 µM	
CC(C)(C)c1ccc(-c2nc3[nH]c(CNc4ccnn4-c4ccccc4)cc(=O)n3n2)cc1 [Example 4b, 2-(4-(tert-butyl)phenyl)-5-(((1-phenyl-1H-pyrazol-5-yl)amino)methyl)-[1,2,4]triazolo[1,5-a]pyrimidin-7(4H)-one]	> 100 µM	> 100 µM	
COc1cccc(NCc2cc(=O)n3nc(-c4ccc(C(C)(C)C)cc4)nc3[nH]2)c1 [Example D351-0319]		> 100 µM	
COc1ccc(Cl)cc1NCc1cc(=O)n2nc(-c3ccc(C(C)(C)C)cc3)nc2[nH]1 [Example D351-0303]	0.808 µM	21.7 µM	
CCCc1cc(=O)n2nc(CNc3cccc(Cl)c3)nc2[nH]1 [Example 5e, 2-(((3-chlorophenyl)amino)methyl)-5-propyl-[1,2,4]triazolo[1,5-a]pyrimidin-7(4H)-one]	0.346 µM	> 100 µM	
O=c1c2c([nH]c3nc(CNc4ccc(Cl)cc4)nn13)CCC2 [Example D433-1839]	1.05 µM	81.5 µM	
CCCc1cc(=O)n2nc(CNc3ccc(Cl)cc3)nc2[nH]1 [Example 5f, 2-(((4-chlorophenyl)amino)methyl)-5-propyl-[1,2,4]triazolo[1,5-a]pyrimidin-7(4H)-one]	0.0916 µM		> 100 µM
CCN(CC)Cc1cc(=O)n2nc(-c3ccc(C(C)(C)C)cc3)nc2[nH]1 [Example 4g, 2-(4-(tert-butyl)phenyl)-5-((diethylamino)methyl)-[1,2,4]triazolo[1,5-a]pyrimidin-7(4H)-one]	> 100 µM	> 100 µM	
CN(Cc1ccccc1)Cc1cc(=O)n2nc(-c3ccc(C(C)(C)C)cc3)nc2[nH]1 [Example 4a, 5-((benzyl(methyl)amino)methyl)-2-(4-(tert-butyl)phenyl)-[1,2,4]triazolo[1,5-a]pyrimidin-7(4H)-one]	> 100 µM	> 100 µM	
